Results taken from ChEMBL document CHEMBL1133079, “Synthesis and antibacterial activity of novel 6-O-substituted erythromycin A derivatives” (2000).
Values after ≈ are worked out from the molar mass of the structure shown.

How the values were obtained:
Haemophilus influenzae = assay: In vitro minimum inhibitory concentration against Haemophilus influenzae DILL using standard agar dilution method; format: functional
Staphylococcus aureus [1] = assay: In vitro minimum inhibitory concentration against Staphylococcus aureus 6538P using standard agar dilution method; format: functional
Staphylococcus aureus [2] = assay: In vitro minimum inhibitory concentration against Staphylococcus aureus A5177.; format: functional
Streptococcus pneumoniae [3] = assay: In vitro minimum inhibitory concentration against Streptococcus pneumoniae 5649.; format: functional
Streptococcus pneumoniae [4] = assay: In vitro minimum inhibitory concentration against Streptococcus pneumoniae 5737.; format: functional
Streptococcus pneumoniae [5] = assay: In vitro minimum inhibitory concentration against Streptococcus pneumoniae ATCC 6303.; format: functional
Streptococcus pyogenes [6] = assay: In vitro minimum inhibitory concentration against Streptococcus pyogenes 930 using standard agar dilution method; format: functional
Streptococcus pyogenes [7] = assay: In vitro minimum inhibitory concentration against Streptococcus pyogenes EES61 using standard agar dilution method; format: functional
Streptococcus pyogenes [8] = assay: In vitro minimum inhibitory concentration against Streptococcus pyogenes PIU 2548 using standard agar dilution method; format: functional
Staphylococcus aureus [9] = assay: In vitro minimum inhibitory concentration against Staphylococcus aureus A5177 using standard agar dilution method; format: functional
Staphylococcus aureus [10] = assay: In vitro minimum inhibitory concentration against Staphylococcus aureus 6538P using standard agar dilution method

Row | Compound | MIC (Haemophilus influenzae) | MIC (Staphylococcus aureus [1]) | MIC (Staphylococcus aureus [2]) | MIC (Streptococcus pneumoniae [3]) | MIC (Streptococcus pneumoniae [4]) | MIC (Streptococcus pneumoniae [5]) | MIC (Streptococcus pyogenes [6]) | MIC (Streptococcus pyogenes [7]) | MIC (Streptococcus pyogenes [8]) | MIC (Staphylococcus aureus [9]) | MIC (Staphylococcus aureus [10])
1 | CC[C@H]1OC(=O)[C@H](C)[C@@H](O[C@H]2C[C@@](C)(OC)[C@@H](O)[C@H](C)O2)[C@H](C)[C@@H](O[C@@H]2O[C@H](C)C[C@H](N(C)C)[C@H]2O)[C@@](C)(OC/C=C/c2ccccc2)C[C@@H](C)C(=O)[C@H](C)[C@@H](O)[C@]1(C)O | 4 µg/mL (≈ 4.71 µM) | 0.39 µg/mL (≈ 0.459 µM) | 6.2 µg/mL (≈ 7.29 µM) | 4 µg/mL (≈ 4.71 µM) | 32 µg/mL (≈ 37.6 µM) | 0.06 µg/mL (≈ 0.0706 µM) | 32 µg/mL (≈ 37.6 µM) | 0.03 µg/mL (≈ 0.0353 µM) | 16 µg/mL (≈ 18.8 µM) |  | 
2 | CC[C@H]1OC(=O)[C@H](C)[C@@H](O[C@H]2C[C@@](C)(OC)[C@@H](O)[C@H](C)O2)[C@H](C)[C@@H](O[C@@H]2O[C@H](C)C[C@H](N(C)C)[C@H]2O)[C@@](C)(OCCNCc2ccccc2)C[C@@H](C)C(=O)[C@H](C)[C@@H](O)[C@]1(C)O | 8 µg/mL (≈ 9.23 µM) | 0.78 µg/mL (≈ 0.9 µM) | 12.5 µg/mL (≈ 14.4 µM) | 32 µg/mL (≈ 36.9 µM) | > 128 µg/mL | 0.125 µg/mL (≈ 0.144 µM) | > 128 µg/mL | 0.25 µg/mL (≈ 0.288 µM) | 64 µg/mL (≈ 73.8 µM) |  | 
3 | CC[C@H]1OC(=O)[C@H](C)[C@@H](O[C@H]2C[C@@](C)(OC)[C@@H](O)[C@H](C)O2)[C@H](C)[C@@H](O[C@@H]2O[C@H](C)C[C@H](N(C)C)[C@H]2O)[C@@](C)(OCc2ccc(F)cc2)C[C@@H](C)C(=O)[C@H](C)[C@@H](O)[C@]1(C)O | 64 µg/mL (≈ 76 µM) | 3.1 µg/mL (≈ 3.68 µM) | 12.5 µg/mL (≈ 14.8 µM) | 8 µg/mL (≈ 9.5 µM) | 8 µg/mL (≈ 9.5 µM) | 1 µg/mL (≈ 1.19 µM) | 8 µg/mL (≈ 9.5 µM) | 1 µg/mL (≈ 1.19 µM) | 8 µg/mL (≈ 9.5 µM) |  | 
4 | CC[C@H]1OC(=O)[C@H](C)[C@@H](O[C@H]2C[C@@](C)(OC)[C@@H](O)[C@H](C)O2)[C@H](C)[C@@H](O[C@@H]2O[C@H](C)C[C@H](N(C)C)[C@H]2O)[C@@](C)(OC/C=C/c2cnc3ccccc3c2)C[C@@H](C)C(=O)[C@H](C)[C@@H](O)[C@]1(C)O | 8 µg/mL (≈ 8.88 µM) | 0.2 µg/mL (≈ 0.222 µM) | 3.1 µg/mL (≈ 3.44 µM) | 4 µg/mL (≈ 4.44 µM) | 128 µg/mL (≈ 142 µM) | 0.06 µg/mL (≈ 0.0666 µM) | 64 µg/mL (≈ 71 µM) | 0.06 µg/mL (≈ 0.0666 µM) | 4 µg/mL (≈ 4.44 µM) |  | 
5 | CC[C@H]1OC(=O)[C@H](C)[C@@H](O[C@H]2C[C@@](C)(OC)[C@@H](O)[C@H](C)O2)[C@H](C)[C@@H](O[C@@H]2O[C@H](C)C[C@H](N(C)C)[C@H]2O)[C@@](C)(OCCO)C[C@@H](C)C(=O)[C@H](C)[C@@H](O)[C@]1(C)O | 8 µg/mL (≈ 10.3 µM) | 0.39 µg/mL (≈ 0.501 µM) | 6.2 µg/mL (≈ 7.97 µM) | 32 µg/mL (≈ 41.1 µM) | > 64 µg/mL | 0.125 µg/mL (≈ 0.161 µM) | > 64 µg/mL | 0.125 µg/mL (≈ 0.161 µM) | 64 µg/mL (≈ 82.3 µM) |  | 
6 | CC[C@H]1OC(=O)[C@H](C)[C@@H](O[C@H]2C[C@@](C)(OC)[C@@H](O)[C@H](C)O2)[C@H](C)[C@@H](O[C@@H]2O[C@H](C)C[C@H](N(C)C)[C@H]2O)[C@@](C)(OC/C=N/Nc2ccccn2)C[C@@H](C)C(=O)[C@H](C)[C@@H](O)[C@]1(C)O | 8 µg/mL (≈ 9.23 µM) | 0.78 µg/mL (≈ 0.9 µM) | 25 µg/mL (≈ 28.8 µM) | 64 µg/mL (≈ 73.8 µM) | > 128 µg/mL | 0.25 µg/mL (≈ 0.288 µM) | > 128 µg/mL | 0.125 µg/mL (≈ 0.144 µM) | 128 µg/mL (≈ 148 µM) |  | 
7 | CC[C@H]1OC(=O)[C@H](C)[C@@H](O[C@H]2C[C@@](C)(OC)[C@@H](O)[C@H](C)O2)[C@H](C)[C@@H](O[C@@H]2O[C@H](C)C[C@H](N(C)C)[C@H]2O)[C@@](C)(OCC(O)CNCCc2ccccc2)C[C@@H](C)C(=O)[C@H](C)[C@@H](O)[C@]1(C)O (stereo partly specified) | 4 µg/mL (≈ 4.39 µM) | 0.2 µg/mL (≈ 0.219 µM) | 6.2 µg/mL (≈ 6.8 µM) | 32 µg/mL (≈ 35.1 µM) | 32 µg/mL (≈ 35.1 µM) | 0.008 µg/mL (≈ 0.00878 µM) | > 64 µg/mL | 0.03 µg/mL (≈ 0.0329 µM) | 16 µg/mL (≈ 17.6 µM) |  | 
8 | CC[C@H]1OC(=O)[C@H](C)[C@@H](O[C@H]2C[C@@](C)(OC)[C@@H](O)[C@H](C)O2)[C@H](C)[C@@H](O[C@@H]2O[C@H](C)C[C@H](N(C)C)[C@H]2O)[C@@](C)(OC/C=C/c2cccc3ccccc23)C[C@@H](C)C(=O)[C@H](C)[C@@H](O)[C@]1(C)O | 4 µg/mL (≈ 4.44 µM) | 0.78 µg/mL (≈ 0.867 µM) | 12.5 µg/mL (≈ 13.9 µM) | 16 µg/mL (≈ 17.8 µM) | 8 µg/mL (≈ 8.89 µM) | 0.25 µg/mL (≈ 0.278 µM) | 8 µg/mL (≈ 8.89 µM) | 0.06 µg/mL (≈ 0.0667 µM) | 8 µg/mL (≈ 8.89 µM) |  | 
9 | CC[C@H]1OC(=O)[C@H](C)[C@@H](O[C@H]2C[C@@](C)(OC)[C@@H](O)[C@H](C)O2)[C@H](C)[C@@H](O[C@@H]2O[C@H](C)C[C@H](N(C)C)[C@H]2O)[C@@](C)(OCCNCCCc2ccccc2)C[C@@H](C)C(=O)[C@H](C)[C@@H](O)[C@]1(C)O | 4 µg/mL (≈ 4.47 µM) | 0.05 µg/mL (≈ 0.0559 µM) | 3.1 µg/mL (≈ 3.46 µM) | 16 µg/mL (≈ 17.9 µM) | > 128 µg/mL | 0.03 µg/mL (≈ 0.0335 µM) | > 128 µg/mL | 0.03 µg/mL (≈ 0.0335 µM) | 32 µg/mL (≈ 35.7 µM) |  | 
10 | CC[C@H]1OC(=O)[C@H](C)[C@@H](O[C@H]2C[C@@](C)(OC)[C@@H](O)[C@H](C)O2)[C@H](C)[C@@H](O[C@@H]2O[C@H](C)C[C@H](N(C)C)[C@H]2O)[C@@](C)(OC/C=N/OC)C[C@@H](C)C(=O)[C@H](C)[C@@H](O)[C@]1(C)O | 16 µg/mL (≈ 19.9 µM) | 0.78 µg/mL (≈ 0.969 µM) | 25 µg/mL (≈ 31.1 µM) | 32 µg/mL (≈ 39.8 µM) | > 128 µg/mL | 0.125 µg/mL (≈ 0.155 µM) | > 128 µg/mL | 0.125 µg/mL (≈ 0.155 µM) | 64 µg/mL (≈ 79.5 µM) |  | 
11 | CC[C@H]1OC(=O)[C@H](C)[C@@H](O[C@H]2C[C@@](C)(OC)[C@@H](O)[C@H](C)O2)[C@H](C)[C@@H](O[C@@H]2O[C@H](C)C[C@H](N(C)C)[C@H]2O)[C@@](C)(OC/C=N/NC)C[C@@H](C)C(=O)[C@H](C)[C@@H](O)[C@]1(C)O | 8 µg/mL (≈ 9.95 µM) | 0.78 µg/mL (≈ 0.97 µM) | 25 µg/mL (≈ 31.1 µM) | 64 µg/mL (≈ 79.6 µM) | > 128 µg/mL | 0.125 µg/mL (≈ 0.155 µM) | > 128 µg/mL | 0.06 µg/mL (≈ 0.0746 µM) | 128 µg/mL (≈ 159 µM) |  | 
12 | CCCO[C@@]1(C)C[C@@H](C)C(=O)[C@H](C)[C@@H](O)[C@](C)(O)[C@@H](CC)OC(=O)[C@H](C)[C@@H](O[C@H]2C[C@@](C)(OC)[C@@H](O)[C@H](C)O2)[C@H](C)[C@H]1O[C@@H]1O[C@H](C)C[C@H](N(C)C)[C@H]1O | 32 µg/mL (≈ 41.2 µM) |  |  |  |  |  | > 128 µg/mL | 0.05 µg/mL (≈ 0.0644 µM) | 64 µg/mL (≈ 82.5 µM) | 25 µg/mL (≈ 32.2 µM) | 3.1 µg/mL (≈ 3.99 µM)
13 | CC[C@H]1OC(=O)[C@H](C)[C@@H](O[C@H]2C[C@@](C)(OC)[C@@H](O)[C@H](C)O2)[C@H](C)[C@@H](O[C@@H]2O[C@H](C)C[C@H](N(C)C)[C@H]2O)[C@@](C)(OCCNCCc2ccccc2)C[C@@H](C)C(=O)[C@H](C)[C@@H](O)[C@]1(C)O | 2 µg/mL (≈ 2.27 µM) | 0.2 µg/mL (≈ 0.227 µM) | 12.5 µg/mL (≈ 14.2 µM) | 4 µg/mL (≈ 4.54 µM) | 64 µg/mL (≈ 72.6 µM) | 0.03 µg/mL (≈ 0.034 µM) | 64 µg/mL (≈ 72.6 µM) | 0.015 µg/mL (≈ 0.017 µM) | 8 µg/mL (≈ 9.08 µM) |  | 
14 | CC[C@H]1OC(=O)C(C)[C@@H](O[C@H]2C[C@@](C)(OC)[C@@H](O)[C@H](C)O2)[C@H](C)[C@@H](O[C@@H]2O[C@H](C)C[C@H](N(C)C)[C@H]2O)[C@@](C)(OC/C=N/Oc2ccccc2)C[C@@H](C)C(=O)[C@H](C)[C@@H](O)[C@]1(C)O (single isomer, unassigned) | 4 µg/mL (≈ 4.61 µM) | 0.2 µg/mL (≈ 0.231 µM) | 3.1 µg/mL (≈ 3.58 µM) | 16 µg/mL (≈ 18.5 µM) | 128 µg/mL (≈ 148 µM) | 0.008 µg/mL (≈ 0.00923 µM) | 128 µg/mL (≈ 148 µM) | 0.008 µg/mL (≈ 0.00923 µM) | 32 µg/mL (≈ 36.9 µM) |  | 
15 | CC[C@H]1OC(=O)[C@H](C)[C@@H](O[C@H]2C[C@@](C)(OC)[C@@H](O)[C@H](C)O2)[C@H](C)[C@@H](O[C@@H]2O[C@H](C)C[C@H](N(C)C)[C@H]2O)[C@](C)(OC)C[C@@H](C)C(=O)[C@H](C)[C@@H](O)[C@]1(C)O [CLARITHROMYCIN] | 8 µg/mL (≈ 10.7 µM) | 0.2 µg/mL (≈ 0.267 µM) | 6.2 µg/mL (≈ 8.29 µM) | 16 µg/mL (≈ 21.4 µM) | > 128 µg/mL | 0.06 µg/mL (≈ 0.0802 µM) | > 128 µg/mL | 0.03 µg/mL (≈ 0.0401 µM) | 32 µg/mL (≈ 42.8 µM) |  | 
16 | CC[C@H]1OC(=O)[C@H](C)[C@@H](O[C@H]2C[C@@](C)(OC)[C@@H](O)[C@H](C)O2)[C@H](C)[C@@H](O[C@@H]2O[C@H](C)C[C@H](N(C)C)[C@H]2O)[C@](C)(O)C[C@@H](C)C(=O)[C@H](C)[C@@H](O)[C@]1(C)O [ERYTHROMYCIN] | 4 µg/mL (≈ 5.45 µM) | 0.2 µg/mL (≈ 0.273 µM) | 6.2 µg/mL (≈ 8.45 µM) | 16 µg/mL (≈ 21.8 µM) | > 128 µg/mL | 0.06 µg/mL (≈ 0.0818 µM) | > 128 µg/mL | 0.03 µg/mL (≈ 0.0409 µM) | 32 µg/mL (≈ 43.6 µM) |  | 
